Results reported in ChEMBL document CHEMBL4507318, “Data for DCP probe BAY-985” (2021).

Columns and labels:
[1] = molecular target: Mitogen-activated protein kinase kinase kinase 19 (Homo sapiens) (UniProt Q56UN5)
[2] = tested on: Receptor-type tyrosine-protein kinase FLT3 (Homo sapiens), P36888 [UNDEFINED MUTATION]
[3] = molecular target: Fibroblast growth factor receptor 4 (Homo sapiens) (UniProt P22455)
[4] = molecular target: Activin receptor type-1 (Homo sapiens) (UniProt Q04771)
[5] = molecular target: Dual specificity mitogen-activated protein kinase kinase 1 (Homo sapiens) (UniProt Q02750)
[6] = molecular target: Cyclin-dependent kinase 7 (Homo sapiens) (UniProt P50613)
[7] = molecular target: Calcium/calmodulin-dependent protein kinase type II subunit alpha (Homo sapiens) (UniProt Q9UQM7)
[8] = molecular target: D(3) dopamine receptor (Homo sapiens) (UniProt P35462); conditions: Compound concentration 10.0 uM
[9] = molecular target: Ephrin type-B receptor 6 (Homo sapiens) (UniProt O15197)
[10] = molecular target: Cytoplasmic tyrosine-protein kinase BMX (Homo sapiens) (UniProt P51813)
[11] = molecular target: Ribosomal protein S6 kinase alpha-3 (Homo sapiens) (UniProt P51812)
[12] = molecular target: Serine/threonine-protein kinase TAO1 (Homo sapiens) (UniProt Q7L7X3)
[13] = molecular target: Serine/threonine-protein kinase Nek3 (Homo sapiens) (UniProt P51956)
[14] = tested on: Tyrosine-protein kinase ABL1 (Homo sapiens), P00519 [F317L]
[15] = molecular target: Serine/threonine-protein kinase PAK 5 (Homo sapiens) (UniProt Q9P286)
[16] = molecular target: Homeodomain-interacting protein kinase 3 (Homo sapiens) (UniProt Q9H422)
[17] = molecular target: Tyrosine-protein kinase receptor Tie-1 (Homo sapiens) (UniProt P35590)
[18] = molecular target: Serine/threonine-protein kinase Sgk3 (Homo sapiens) (UniProt Q96BR1)
[19] = molecular target: Sigma intracellular receptor 2 (Homo sapiens, UniProt Q5BJF2); test: GPCRScan assay: inhibition of Sigma 2; set-up: radioligand conc. used [nm] 5.0, parental cells HEKT
[20] = molecular target: D(1A) dopamine receptor (Homo sapiens) (UniProt P21728); conditions: Compound concentration 10.0 uM
[21] = molecular target: Serine/threonine-protein kinase TBK1 (Homo sapiens) (UniProt Q9UHD2)
[22] = molecular target: 5'-AMP-activated protein kinase catalytic subunit alpha-1 (Homo sapiens) (UniProt Q13131)
[23] = tested on: Proto-oncogene tyrosine-protein kinase receptor Ret (Homo sapiens), P07949 [V804L]
[24] = molecular target: Mitogen-activated protein kinase kinase kinase 7 (Homo sapiens) (UniProt O43318)
[25] = molecular target: D(2) dopamine receptor (Homo sapiens) (UniProt P14416); conditions: Compound concentration 10.0 uM
[26] = tested on: Mast/stem cell growth factor receptor Kit (Homo sapiens), P10721 [D816H]
[27] = molecular target: Cyclin-dependent kinase 2 (Homo sapiens) (UniProt P24941)
[28] = tested on: Epidermal growth factor receptor (Homo sapiens), P00533 [T790M]
[29] = molecular target: Tyrosine-protein kinase Fes/Fps (Homo sapiens) (UniProt P07332)
[30] = molecular target: Serine/threonine-protein kinase 10 (Homo sapiens) (UniProt O94804)
[31] = molecular target: Serine/threonine-protein kinase ICK (Homo sapiens) (UniProt Q9UPZ9)
[32] = molecular target: Ephrin type-A receptor 8 (Homo sapiens) (UniProt P29322)
[33] = molecular target: Serine/threonine-protein kinase 17B (Homo sapiens) (UniProt O94768)
[34] = molecular target: Serine/threonine-protein kinase 33 (Homo sapiens) (UniProt Q9BYT3)
[35] = molecular target: D(1B) dopamine receptor (Homo sapiens) (UniProt P21918); conditions: Compound concentration 10.0 uM
[36] = molecular target: Serine/threonine-protein kinase ULK2 (Homo sapiens) (UniProt Q8IYT8)
[37] = tested on: Epidermal growth factor receptor (Homo sapiens), P00533 [UNDEFINED MUTATION]
[38] = molecular target: Serine/threonine-protein kinase Nek11 (Homo sapiens) (UniProt Q8NG66)
[39] = molecular target: cAMP-dependent protein kinase catalytic subunit beta (Homo sapiens) (UniProt P22694)
[40] = molecular target: Serine/threonine-protein kinase STK11 (Homo sapiens) (UniProt Q15831)
[41] = molecular target: Protein kinase C delta type (Homo sapiens) (UniProt Q05655)
[42] = molecular target: Serine/threonine-protein kinase WNK1 (Homo sapiens) (UniProt Q9H4A3)
[43] = molecular target: Mitogen-activated protein kinase 13 (Homo sapiens) (UniProt O15264)
[44] = molecular target: Mitogen-activated protein kinase 8 (Homo sapiens) (UniProt P45983)
[45] = tested on: Fibroblast growth factor receptor 3 (Homo sapiens), P22607 [G697C]
[46] = Compound concentration 100.0 nM
[47] = Compound concentration 1000.0 nM

Sigma intracellular receptor 2, sequence (Q5BJF2 whole entry): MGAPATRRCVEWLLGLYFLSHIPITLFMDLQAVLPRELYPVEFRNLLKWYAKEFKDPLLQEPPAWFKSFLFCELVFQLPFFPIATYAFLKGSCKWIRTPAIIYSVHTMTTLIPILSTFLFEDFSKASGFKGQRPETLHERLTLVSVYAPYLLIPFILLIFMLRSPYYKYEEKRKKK
Serine/threonine-protein kinase PAK 5 (Homo sapiens), sequence (Q9P286 whole entry, looked up): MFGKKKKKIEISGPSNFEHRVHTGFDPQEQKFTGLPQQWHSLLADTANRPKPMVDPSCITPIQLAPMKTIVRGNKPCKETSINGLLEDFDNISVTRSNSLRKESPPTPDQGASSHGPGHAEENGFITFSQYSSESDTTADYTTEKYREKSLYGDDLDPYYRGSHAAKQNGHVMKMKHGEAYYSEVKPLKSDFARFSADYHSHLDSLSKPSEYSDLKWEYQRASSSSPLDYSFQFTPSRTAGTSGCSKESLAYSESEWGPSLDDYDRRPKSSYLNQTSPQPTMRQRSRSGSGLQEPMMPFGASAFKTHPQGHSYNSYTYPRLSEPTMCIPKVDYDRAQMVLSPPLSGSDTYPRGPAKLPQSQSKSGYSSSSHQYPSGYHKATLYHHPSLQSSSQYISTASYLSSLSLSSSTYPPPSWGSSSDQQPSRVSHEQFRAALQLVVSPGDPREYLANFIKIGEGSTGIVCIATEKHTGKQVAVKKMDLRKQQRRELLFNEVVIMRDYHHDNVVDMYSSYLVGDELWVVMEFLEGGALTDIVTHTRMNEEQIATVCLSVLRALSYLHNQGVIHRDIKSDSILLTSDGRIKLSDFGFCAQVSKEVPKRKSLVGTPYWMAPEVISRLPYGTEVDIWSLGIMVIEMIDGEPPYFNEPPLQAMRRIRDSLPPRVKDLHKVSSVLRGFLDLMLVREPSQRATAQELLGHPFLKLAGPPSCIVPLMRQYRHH
Ephrin type-A receptor 8 (Homo sapiens), sequence (P29322 whole entry): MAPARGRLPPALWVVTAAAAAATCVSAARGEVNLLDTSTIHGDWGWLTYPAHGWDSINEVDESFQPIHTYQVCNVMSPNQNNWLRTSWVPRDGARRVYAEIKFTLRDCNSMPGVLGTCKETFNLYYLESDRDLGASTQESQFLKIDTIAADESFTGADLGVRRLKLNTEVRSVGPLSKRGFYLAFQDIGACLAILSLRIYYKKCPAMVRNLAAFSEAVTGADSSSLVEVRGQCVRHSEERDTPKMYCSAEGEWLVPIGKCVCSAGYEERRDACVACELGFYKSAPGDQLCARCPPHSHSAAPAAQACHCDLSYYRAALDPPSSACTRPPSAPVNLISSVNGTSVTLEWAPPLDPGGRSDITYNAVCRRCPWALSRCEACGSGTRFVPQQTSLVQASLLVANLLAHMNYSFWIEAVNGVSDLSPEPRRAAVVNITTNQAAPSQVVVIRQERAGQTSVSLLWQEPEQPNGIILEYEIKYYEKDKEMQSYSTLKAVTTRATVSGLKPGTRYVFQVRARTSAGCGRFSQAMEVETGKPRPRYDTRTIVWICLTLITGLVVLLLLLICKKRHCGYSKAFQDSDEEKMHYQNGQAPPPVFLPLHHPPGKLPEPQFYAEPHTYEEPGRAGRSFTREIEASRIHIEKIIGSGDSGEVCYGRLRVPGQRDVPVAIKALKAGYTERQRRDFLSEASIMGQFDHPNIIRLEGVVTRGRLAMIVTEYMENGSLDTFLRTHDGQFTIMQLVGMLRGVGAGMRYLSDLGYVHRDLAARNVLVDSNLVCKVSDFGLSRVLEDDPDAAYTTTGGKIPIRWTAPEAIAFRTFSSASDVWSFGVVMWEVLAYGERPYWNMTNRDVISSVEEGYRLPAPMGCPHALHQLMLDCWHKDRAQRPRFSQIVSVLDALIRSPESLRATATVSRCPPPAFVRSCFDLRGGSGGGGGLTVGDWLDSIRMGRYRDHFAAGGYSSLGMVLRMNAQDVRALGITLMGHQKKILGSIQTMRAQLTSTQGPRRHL
D(3) dopamine receptor (Homo sapiens), sequence (P35462 whole entry): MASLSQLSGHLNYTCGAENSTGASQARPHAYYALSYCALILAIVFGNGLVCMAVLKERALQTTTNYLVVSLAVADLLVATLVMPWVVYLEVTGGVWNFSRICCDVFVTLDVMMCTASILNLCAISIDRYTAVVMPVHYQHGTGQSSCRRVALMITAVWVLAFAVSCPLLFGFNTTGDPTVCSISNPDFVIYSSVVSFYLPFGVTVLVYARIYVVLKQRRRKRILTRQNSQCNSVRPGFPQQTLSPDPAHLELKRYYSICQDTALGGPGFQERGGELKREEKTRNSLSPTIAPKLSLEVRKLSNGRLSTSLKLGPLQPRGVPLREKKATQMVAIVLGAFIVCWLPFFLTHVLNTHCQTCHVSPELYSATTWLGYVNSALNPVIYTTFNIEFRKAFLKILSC
Serine/threonine-protein kinase Nek3 (Homo sapiens), sequence (P51956 whole entry): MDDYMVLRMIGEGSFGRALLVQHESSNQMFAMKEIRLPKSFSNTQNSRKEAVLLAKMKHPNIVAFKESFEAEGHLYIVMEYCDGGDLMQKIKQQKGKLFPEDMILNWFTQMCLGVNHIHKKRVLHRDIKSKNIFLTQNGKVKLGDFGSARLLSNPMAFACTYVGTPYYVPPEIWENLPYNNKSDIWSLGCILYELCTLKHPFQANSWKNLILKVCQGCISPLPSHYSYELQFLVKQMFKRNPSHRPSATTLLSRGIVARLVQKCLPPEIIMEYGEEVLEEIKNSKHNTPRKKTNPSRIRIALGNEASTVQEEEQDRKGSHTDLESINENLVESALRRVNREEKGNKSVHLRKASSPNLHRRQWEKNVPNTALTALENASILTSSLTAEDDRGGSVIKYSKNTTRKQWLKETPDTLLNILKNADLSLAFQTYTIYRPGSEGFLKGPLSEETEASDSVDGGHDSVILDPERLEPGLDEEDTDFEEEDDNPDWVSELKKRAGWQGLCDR
Protein kinase C delta type (Homo sapiens), sequence (Q05655 whole entry, looked up): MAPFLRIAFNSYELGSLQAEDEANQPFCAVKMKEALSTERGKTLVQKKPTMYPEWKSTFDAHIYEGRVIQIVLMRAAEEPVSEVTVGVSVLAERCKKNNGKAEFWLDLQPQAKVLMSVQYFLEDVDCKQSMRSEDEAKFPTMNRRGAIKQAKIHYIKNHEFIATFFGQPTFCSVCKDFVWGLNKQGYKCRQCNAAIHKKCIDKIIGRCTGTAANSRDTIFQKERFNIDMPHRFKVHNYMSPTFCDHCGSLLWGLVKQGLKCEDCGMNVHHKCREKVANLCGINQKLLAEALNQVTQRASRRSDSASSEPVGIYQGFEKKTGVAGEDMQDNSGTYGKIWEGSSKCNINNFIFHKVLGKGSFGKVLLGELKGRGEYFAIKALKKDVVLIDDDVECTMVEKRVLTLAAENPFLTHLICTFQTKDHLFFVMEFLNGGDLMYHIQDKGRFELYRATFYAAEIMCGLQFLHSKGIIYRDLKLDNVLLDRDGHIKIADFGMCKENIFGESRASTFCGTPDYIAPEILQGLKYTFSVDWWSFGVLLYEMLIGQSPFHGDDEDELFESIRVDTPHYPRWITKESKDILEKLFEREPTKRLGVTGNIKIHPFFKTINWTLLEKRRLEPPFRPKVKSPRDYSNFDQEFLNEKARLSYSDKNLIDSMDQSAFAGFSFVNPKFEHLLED
Serine/threonine-protein kinase TBK1 (Homo sapiens), sequence (Q9UHD2 whole entry): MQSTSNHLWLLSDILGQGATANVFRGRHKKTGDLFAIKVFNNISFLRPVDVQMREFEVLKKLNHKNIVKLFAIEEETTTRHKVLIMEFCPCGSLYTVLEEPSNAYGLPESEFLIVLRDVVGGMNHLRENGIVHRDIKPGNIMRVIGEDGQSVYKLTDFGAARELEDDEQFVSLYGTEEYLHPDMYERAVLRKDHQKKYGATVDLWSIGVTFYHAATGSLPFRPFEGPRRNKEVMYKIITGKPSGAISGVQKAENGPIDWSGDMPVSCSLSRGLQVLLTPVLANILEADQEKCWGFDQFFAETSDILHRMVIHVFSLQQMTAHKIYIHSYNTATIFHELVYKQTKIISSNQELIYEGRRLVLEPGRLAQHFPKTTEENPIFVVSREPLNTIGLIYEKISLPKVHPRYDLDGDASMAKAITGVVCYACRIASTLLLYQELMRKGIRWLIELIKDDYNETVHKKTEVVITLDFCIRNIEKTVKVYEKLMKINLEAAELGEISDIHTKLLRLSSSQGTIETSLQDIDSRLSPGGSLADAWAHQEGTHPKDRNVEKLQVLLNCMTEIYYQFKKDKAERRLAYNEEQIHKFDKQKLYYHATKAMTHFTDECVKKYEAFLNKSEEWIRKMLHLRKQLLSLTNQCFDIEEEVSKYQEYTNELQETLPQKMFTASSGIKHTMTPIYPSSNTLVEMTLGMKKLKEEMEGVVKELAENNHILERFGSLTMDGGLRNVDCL
Cytoplasmic tyrosine-protein kinase BMX (Homo sapiens), sequence (P51813 whole entry): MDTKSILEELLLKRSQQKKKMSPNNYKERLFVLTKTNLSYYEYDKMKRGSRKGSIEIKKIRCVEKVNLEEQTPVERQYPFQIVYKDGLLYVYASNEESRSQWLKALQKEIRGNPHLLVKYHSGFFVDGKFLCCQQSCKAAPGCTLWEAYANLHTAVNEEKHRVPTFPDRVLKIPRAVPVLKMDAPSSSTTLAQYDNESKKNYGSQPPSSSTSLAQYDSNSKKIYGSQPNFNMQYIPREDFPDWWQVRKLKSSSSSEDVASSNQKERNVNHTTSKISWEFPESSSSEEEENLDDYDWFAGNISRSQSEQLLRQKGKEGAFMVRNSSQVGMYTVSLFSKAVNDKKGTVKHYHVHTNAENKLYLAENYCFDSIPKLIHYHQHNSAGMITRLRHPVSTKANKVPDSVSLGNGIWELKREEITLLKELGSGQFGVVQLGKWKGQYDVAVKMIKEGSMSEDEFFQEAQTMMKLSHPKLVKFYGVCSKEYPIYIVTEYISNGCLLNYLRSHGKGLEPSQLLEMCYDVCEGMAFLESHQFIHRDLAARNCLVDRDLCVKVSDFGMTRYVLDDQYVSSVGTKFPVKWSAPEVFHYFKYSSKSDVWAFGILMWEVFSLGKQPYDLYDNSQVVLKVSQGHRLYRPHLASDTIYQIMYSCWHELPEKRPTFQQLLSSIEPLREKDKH

SMILES: C[C@H](c1ccnc(Nc2nc3ccc(-c4cc(N(C)C)ncn4)cc3[nH]2)c1)N1CCN(C(=O)CC(F)(F)F)CC1 [BAY-985]
- residual activity [1, 46]: 10%
- residual activity [2, 46]: 64%
- residual activity [3, 46]: 98%
- residual activity [4, 46]: 100%
- residual activity [5, 46]: 99%
- residual activity [6, 46]: 93%
- residual activity [7, 46]: 99%
- inhibition [8]: 35.5%
- residual activity [9, 46]: 100%
- residual activity [10, 46]: 100%
- residual activity [11, 46]: 100%
- residual activity [12, 46]: 100%
- residual activity [13, 46]: 100%
- residual activity [14, 46]: 100%
- residual activity [15, 46]: 100%
- residual activity [16, 46]: 100%
- residual activity [17, 46]: 85%
- residual activity [18, 46]: 100%
- Ki ([19]; read-out: Ki): 1160 nM
- Ki ([19]; read-out: pKi (converted)): 1120 nM
- inhibition [20]: 1.63%
- residual activity [21, 46]: 2.4%
- residual activity [22, 46]: 100%
- residual activity [23, 46]: 83%
- residual activity [24, 46]: 85%
- inhibition [25]: 5.66%
- residual activity [26, 46]: 82%
- residual activity [27, 46]: 100%
- residual activity [28, 46]: 100%
- residual activity [29, 46]: 75%
- residual activity [30, 46]: 86%
- residual activity [31, 46]: 88%
- residual activity [32, 46]: 100%
- residual activity [33, 46]: 100%
- residual activity [34, 46]: 100%
- inhibition [35]: 10.2%
- residual activity [36, 46]: 100%
- residual activity [37, 46]: 69%
- residual activity [38, 46]: 96%
- residual activity [39, 46]: 100%
- residual activity [40, 46]: 100%
- residual activity [41, 46]: 100%
- residual activity [42, 46]: 100%
- residual activity [43, 46]: 80%
- residual activity [44, 46]: 98%
- residual activity [45, 46]: 100%

SMILES: CN(C)c1ncnc(-c2ccc3nc(Nc4cc(CN5CCN(C(=O)CC(F)(F)F)CC5)ccn4)[nH]c3c2)c1Cl [BAY-440]
- residual activity [1, 47]: 15%
- residual activity [2, 47]: 15%
- residual activity [3, 47]: 92%
- residual activity [4, 47]: 88%
- residual activity [5, 47]: 78%
- residual activity [6, 47]: 80%
- residual activity [7, 47]: 100%
- inhibition [8]: 30.1%
- residual activity [9, 47]: 69%
- residual activity [10, 47]: 100%
- residual activity [11, 47]: 87%
- residual activity [12, 47]: 77%
- residual activity [13, 47]: 69%
- residual activity [14, 47]: 29%
- residual activity [15, 47]: 85%
- residual activity [16, 47]: 100%
- residual activity [17, 47]: 66%
- residual activity [18, 47]: 72%
- Ki ([19]; read-out: Ki): 2190 nM
- inhibition [20]: 23%
- residual activity [21, 47]: 24%
- residual activity [22, 47]: 100%
- residual activity [23, 47]: 100%
- residual activity [24, 47]: 74%
- inhibition [25]: 10.6%
- residual activity [26, 47]: 75%
- residual activity [27, 47]: 100%
- residual activity [28, 47]: 100%
- residual activity [29, 47]: 100%
- residual activity [30, 47]: 54%
- residual activity [31, 47]: 100%
- residual activity [32, 47]: 100%
- residual activity [33, 47]: 52%
- residual activity [34, 47]: 100%
- inhibition [35]: -9.93%
- residual activity [36, 47]: 64%
- residual activity [37, 47]: 100%
- residual activity [38, 47]: 55%
- residual activity [39, 47]: 76%
- residual activity [40, 47]: 99%
- residual activity [41, 47]: 100%
- residual activity [42, 47]: 86%
- residual activity [43, 47]: 100%
- residual activity [44, 47]: 63%
- residual activity [45, 47]: 100%
